Data: US12338266B2 (GENETIC S.P.A., priority 2019, dated 2025)
Entries after “also recorded” stand apart in the source; their conditions may differ.

Experiments:
Type in all cases: in vivo, Balb/c mice
[1] = system: mice with OVA-induced allergic asthma; test: Total and differential leukocyte counts in BAL fluid (Protocol-2)
Description: (§1) Male Balb/c SPF mice (26*2 g, 6 week-old) were purchased from the animal house facilities at the Faculty of Medicine (University of Sāo Paulo, Brazil). They were group-housed in a temperature-controlled room at 22° C. with a 12/12-hour light/dark cycle and allowed free access to food and water. The study is in agreement with the Ethical Principles for Animal Research established by the Brazilian College for Animal Experimentation (COBEA). According to the internal laboratory rules, euthanasia will be performed if severe distress related to the test agents developed during the experiment. Mice were sensitized with two subcutaneous injections of 0.2 ml of OVA/Al(OH)3, with an interval of 7 days (Sham animals received the Al(OH)3 suspension in PBS with no OVA). Chicken egg-white ovalbumin (OVA; grade V, cat. A5503, Sigma Chemical Co., St. Louis, Mo.) was dissolved in sterile phosphate buffered saline (PBS) solution (50 μg/ml) and Al(OH)3 was added (at 8 mg/ml). This mix was used to induce the allergic sensitization of the animals by subcutaneous injection. OVA was dissolved at 1% in sterile PBS solution and this solution was nebulized (as the immunological challenges). Seven days after the second sensitization (i.e., 3rd week), the animals were nebulized twice a week with the 1% OVA solution (Sham and untreated OVA groups were nebulized with PBS) during 20 minutes for the next 4 weeks. Thirty minutes before the challenges (OVA nebulization) and daily during the next 4 weeks, mice were intra-nasally treated (10 μl/animal as 5 μl/nostril) with the respective compounds/vehicle. […] Animals were killed at selected time points by overdose of enflurane and BAL and blood collected.
After Penh evaluation, the mice were anesthetized with inhaled isofluorane (5% v/v in O2) and blood samples were collected from the descending abdominal aorta. The mice were then euthanized by exsanguination and bronchoalveolar lavage (BAL) was performed by exposing and cannulating the trachea with a polyethylene tube (1 mm outer diameter) connected to a syringe. The lungs were washed by flushing 300 μL of heparin-containing PBS solution (20 UI/mL). The retrieved BAL lavage aliquots were obtained and the same procedure was repeated four additional times. The samples were centrifuged (1000 g for 10 min) and the cell pellet was resuspended in 200 μL of PBS solution, Total cell counts were determined using a Neubauer chamber, and differential counting was carried out in cytospin (Fanem Mod 2400; Sāo Paulo, Brazil) preparations stained with May-Grünwald dye. Leukocytes were classified based on morphological criteria.

[2] = system: mice with OVA-induced allergic asthma; test: Salbutamol-induced relaxation of carbachol pre-contracted bronchi of OVA-sensitized mice (Protocol-1)
Description: Balb/c mice (8-9 weeks old, Charles River, Calco, Italy) were housed in the animal care facility at the Department of Pharmacy of the University of Naples. […] All animals were allowed to acclimate for four days prior to experiments and were subjected to 12 h light-12 h dark schedule. Each mouse was assigned an identity number and randomtzed to different groups so that all experiments were carried out in a blinded manner. The experimental procedures were approved by the Italian Ministry according to International and National law and policies (EU Directive 2010/63/EU and Italian DL 26/2014 for animal experiments, ARRIVE guidelines and the Basel declaration including the 3R concept). Animal studies are reported in compliance with the ARRIVE guidelines. Balb/c mice is the most widely mouse strain used to study asthma-like features in vivo and to investigate the undedying molecular and cellular mechanisms of allergen sensitization. Mice were treated subcutaneously (s.c.) with 0.4 mL (100 μg) of ovalbumin (OVA) complexed with alum (13 mg mL^−1) (OVA group) at day 0 and 7. Chicken egg-white ovalbumin (OVA: grade V. cat. A5503, Sigma Chemical Co., St. Louis, MO) was dissolved in sterile phosphate buffered saline (PBS) solution (250 μg/1 ml) and Al(OH)3 was added (at 13 mg/ml). This mix was used to induce the allergic sensitization of the animals by subcutaneous injection. OVA was dissolved at 3% in sterile PBS solution and this solution was nebulized (as the immunological challenges). At day 21 mice were exposed to OVA challenge for three days and then sacrificed. […] A group of animals was treated s.c. with saline (vehicle group). […] Animals were killed at selected time points by overdose of enflurane and bronchi and blood collected. Main bronchi were rapidly dissected and cleaned from fat and connective tissue. Rings of 1-2 mm length were cut and mounted in 2.5 mL isolated organ baths containing Krebs solution, at 37° C., oxygenated (95% O2 and 5% CO2), and connected to an isometric force transducer (type 7000. Ugo Basile. Cornerio, Italy) associated to a Powerlab 800 (AD Instruments). Rings were initially stretched until a resting tension of 0.5 g and allowed to equilibrate for at least 30 min. In each experiment bronchial rings were previously challenged with acetylcholine (10^−6 M) until a reproducible response curve was obtained. Subsequently, after tissue washing, a cumulative concentration response curve to carbachol (10^−9-3×10^−6 M) was performed. Results were expressed as dyne/mg tissue. In another set of experiments on bronchi pre-contracted with carbachol and salbutamol-induced relaxation was assessed.

[3] = system: mice with OVA-induced allergic asthma; test: Lung hyperreactivity / Penh by whole body plethysmography (Protocol-2)
Description: as §1
Airway responsiveness in conscious, spontaneously breathing animals was measured at the end of the 6th week (i.e., after 4 weeks OVA challenges+treatments), 24 h after the last OVA/PBS challenge via whole body plethysmography (Buxco Europe Ltd, Winchester, UK). Experiments were carried out in a quiet room by an investigator who was unaware of the nature of treatments. Aerosolized saline (50 μl/mouse during 60 s) and then the muscarinic agonist metacholine (MCh) at increasing concentrations (3.12, 6.25, 12.5 and 25.0 mg/ml in PBS) was nebulized through an inlet of the main chamber for 3 min each to induce bronchoconstriction and readings were taken and averaged for 6 min following each nebulization. After 20 min. the baseline values usually returned at the end of this period. Enhanced pause (Penh) was measured as an indicator of bronchoconstriction and consequent increase of airway resistance as: Penh=[(expiration time/relaxation time)−1][…].

[4] = 10 nmol/animal/day, comparable with ciclesonide alone at 100 nmol/animal/day

SMILES: CC(C)(O)c1ccccc1CCC(SCC1(CC(=O)OCC(=O)[C@@]23O[C@H](C4CCCCC4)O[C@@H]2C[C@H]2[C@@H]4CCC5=CC(=O)C=C[C@]5(C)[C@H]4[C@@H](O)C[C@@]23C)CC1)c1cccc(/C=C/c2ccc3ccc(Cl)cc3n2)c1 (some centres unmarked) [montelukast desisobutyryl-ciclesonide ester]
- inhibition of eosinophil recruitment to the lungs at the lowest dose tested [1, 4]: significant effects
- BAL eosinophils (OVA-induced increase) ([1]; 10, 30 and 100 nmol/animal/day intranasal, 4 weeks, FIG. 10): did not reach statistical significance; also recorded: lower number of eosinophils
- salbutamol-induced relaxation compared to vehicle ([2]; 2 mg/Kg i.p.): further increase in salbutamol-induced relaxation when compared to vehicle
- salbutamol-induced bronchial relaxation ([2]; 0.5, 1 and 2 mg/Kg i.p., FIG. 5B): rescued salbutamol ability to inducing bronchial relaxation at all doses tested
- preserving salbutamol induced bronchial relaxation, compared to ciclesonide ([2]; ester 2 mg/kg i.p. vs ciclesonide 1 mg/kg): significant major efficacy in preserving salbutamol induced bronchial relaxation
- preserving salbutamol relaxation, ester versus montelukast ([2]; ester 2 mg/kg i.p. vs montelukast 1 mg/kg, FIG. 7B): significantly enhanced
- respiratory function at the lowest dose tested [3, 4]: significant effects
- airway responsiveness, Penh (basal, methacholine Emax and AUC) ([3]; 10, 30 and 100 nmol/day/animal intranasal, daily for 4 weeks, FIG. 8A-D): Significant reduction of this response; also recorded: significantly reduced
